The record followed here is BindingDB's records for doi:10.7270/Q2H993J6 (Pcmd, 2008).

This assay concerns the target Coagulation factor XI (Homo sapiens, UniProt P03951). Briefly: factor XIa inhibitor concentration-response – biochemical, hits from 1536-well screen, dose response (AID 846). Particulars: pH 7.4; 23 °C.

A value given as a limit tells only on which side of the number the result lay.

Coagulation factor XI, sequence (P03951 19-387 limits assumed): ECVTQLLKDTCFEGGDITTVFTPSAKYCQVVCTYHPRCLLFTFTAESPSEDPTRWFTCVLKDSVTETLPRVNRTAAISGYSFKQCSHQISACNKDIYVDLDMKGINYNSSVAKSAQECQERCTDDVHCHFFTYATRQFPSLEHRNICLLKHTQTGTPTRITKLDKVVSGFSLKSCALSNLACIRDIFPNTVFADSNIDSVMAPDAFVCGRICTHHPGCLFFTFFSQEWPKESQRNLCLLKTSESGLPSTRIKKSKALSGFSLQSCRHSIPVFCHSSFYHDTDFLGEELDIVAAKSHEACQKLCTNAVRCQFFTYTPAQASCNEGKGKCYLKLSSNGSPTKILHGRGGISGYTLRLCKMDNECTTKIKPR
Coagulation factor XI, sequence (P03951 388-625 limits assumed): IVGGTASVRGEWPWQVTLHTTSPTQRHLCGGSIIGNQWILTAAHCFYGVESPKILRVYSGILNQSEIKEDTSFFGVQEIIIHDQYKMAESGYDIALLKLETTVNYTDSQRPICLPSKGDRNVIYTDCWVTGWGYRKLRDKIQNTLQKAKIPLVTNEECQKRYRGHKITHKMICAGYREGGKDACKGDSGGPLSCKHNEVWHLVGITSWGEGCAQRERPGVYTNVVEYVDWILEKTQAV

Broadly, the IC50 is the concentration needed to halve the response being measured. `Cc1ccc(S(=O)(=O)ON2C(=O)c3ccccc3C2=O)c(C)c1` [MLS000579570]: the concentration for half-maximal inhibition (IC50) came out at 1.08 µM.

In the case of `CC(C)CNC(=O)Nc1ccc(F)c(Cl)c1` [MLS000679438], the half-maximal inhibitory concentration (IC50) is above 50 µM.

In turn, `CCOC(=O)c1ccc(NC(=O)Nc2cccc(C)n2)cc1` [MLS000679527] gave an IC50 above 50 µM.

`NS(=O)(=O)c1ccc(CCNC(=O)Cc2ccccc2[N+](=O)[O-])cc1` [MLS000689902] gave a 50% inhibitory concentration (IC50) above 50 µM.

Take `COc1c(C)cc(C(=O)C2CCCN(S(=O)(=O)c3c(C)noc3C)C2)cc1C` (configuration not stated) [MLS000693702]: the IC50 was above 50 µM.

For the compound `COc1cc2c(cc1/C=C/[N+](=O)[O-])OCO2` [MLS000706395], the IC50 was above 50 µM.

As for `COc1cc([N+](=O)[O-])cc2sc(NC(C)=O)nc12` [MLS000708454], the IC50 is above 50 µM.

Compound `Cc1nc2cc(NC(=O)Nc3cccc(F)c3)ccc2n1C` [MLS000708492] yielded a concentration for half-maximal inhibition (IC50) above 50 µM.

As for `Cc1ccccc1C(=O)NC1CCSC1=O` (configuration not stated) [MLS000709097], the concentration for half-maximal inhibition (IC50) was above 50 µM.

On to `Cc1cc(C)cc(NC(=O)c2ccc([N+](=O)[O-])o2)c1` [MLS000710428], for which the half-inhibitory concentration (IC50) was above 50 µM.

For the compound `COc1ccc(S(=O)(=O)NCCOc2cccc3cccnc23)cc1OC` [MLS000716779], the 50% inhibitory concentration (IC50) was above 50 µM.

The compound `CCOc1cccc2c1OC1(C)CC2NC(=O)N1Cc1ccccc1` (configuration not stated) [MLS000730538] showed a 50% inhibitory concentration (IC50) above 50 µM.

On to `COc1ccc(C=NNC(=O)CCn2cnc3ccccc32)cc1` [MLS000769034], for which the concentration for half-maximal inhibition (IC50) is above 50 µM.

Consider `Cc1onc(-c2ccccc2)c1C(=O)N(Cc1ccco1)Cc1cccs1` [MLS000771400], for which the IC50 was above 50 µM.

`O=C(NN=Cc1ccccc1C(=O)O)c1ccccc1Br` [MLS000774668] displayed a 50% inhibitory concentration (IC50) above 50 µM.

As for `CC(=O)Nc1ccc(S(=O)(=O)NNC(=O)COc2ccc(Cl)cc2Cl)cc1` [MLS000777409], the concentration for half-maximal inhibition (IC50) was above 50 µM.

Take `COc1ccccc1CC(=O)NCc1csc(-c2cccs2)n1` [MLS000859819]: the concentration for half-maximal inhibition (IC50) is above 50 µM.

Compound `COc1ccc(CN(Cc2ccc(OC)cc2)C(=O)c2cccs2)cc1` [MLS000860276] yielded a half-inhibitory concentration (IC50) above 50 µM.

Regarding `Fc1ccc(Nc2ccc3ccccc3n2)c(F)c1` [MLS001004714], the concentration for half-maximal inhibition (IC50) is above 50 µM.

`Cc1nn(CC(=O)c2ccc(Cl)s2)c(C)c1[N+](=O)[O-]` [MLS001006606] yielded a 50% inhibitory concentration (IC50) above 50 µM.

Take `COc1cc(C(=O)NCC(=O)OCn2nnc3ccccc3c2=O)cc(OC)c1OC` [MLS001007360]: the concentration for half-maximal inhibition (IC50) was above 50 µM.

With `CC1(C)C2CCC(C2)C1(C)/N=C1\OC(CCl)CS1` (configuration not stated) [MLS001012164], the half-inhibitory concentration (IC50) is above 50 µM.

With `CC1(C)[N-]c2ccc([N+](=O)[O-])c(N)c2[N+]1=O` [MLS001012383], the IC50 is above 50 µM.

`CN(C)c1ccc(C(=S)N2CCN(c3ccc([N+](=O)[O-])cc3)CC2)cc1` [MLS001033622] returned an IC50 above 50 µM.

In turn, `COc1cc(C=NNC(=O)c2ccc(CN3C(=O)c4cccc5cccc3c45)cc2)cc(OC)c1O` [MLS001033788] gave an IC50 above 50 µM.

In the case of `CC(C)N(Cc1ccccc1)C(S)=NC1CCCCC1` [MLS001033857], the IC50 was above 50 µM.

With `CC1=NN(C(C#N)c2ccc([N+](=O)[O-])cc2)C(C)(C)C1` (configuration not stated) [MLS001049177], the IC50 is above 50 µM.

Compound `CONC(=N)c1nonc1N` [MLS001049218] had a half-maximal inhibitory concentration (IC50) above 50 µM.

In turn, `O=C(Nc1ccc2c(c1)oc1ccccc12)N1CCOCC1` [Morpholine-4-carboxylic acid dibenzofuran-3-ylamide] yielded an IC50 above 50 µM.

The compound `Cc1ccc(NC2=NC3(CCCCC3)N=C(N)N2)c(C)c1` [N4-(2,4-dimethylphenyl)-1,3,5-triazaspiro[5.5]undeca-1,4-diene-2,4-diamine] displayed a half-inhibitory concentration (IC50) above 50 µM.

Regarding `COCC(=O)Nc1ccccc1-c1ccccc1` [N-2-biphenylyl-2-methoxyacetamide], the 50% inhibitory concentration (IC50) was above 50 µM.

`CCc1cc2c(SCC(=O)N(C)C3CCS(=O)(=O)C3)ncnc2s1` (configuration not stated) [N-(1,1-dioxothiolan-3-yl)-2-(6-ethylthieno[2,3-d]pyrimidin-4-yl)sulfanyl-N-methylacetamide] yielded an IC50 above 50 µM.

In turn, `Cc1cc(NS(=O)(=O)c2ccc(N3C(=O)C4C5C=CC(C5)C4C3=O)cc2)nc(C)n1` (configuration not stated) [N-(2,6-dimethyl-4-pyrimidinyl)-4-(3,5-dioxo-4-azatricyclo[5.2.1.0~2,6~]dec-8-en-4-yl)benzenesulfonamide] came in with an IC50 above 50 µM.

The compound `Cc1ccc(NC(=S)NCCc2ccccc2)nc1` [N-(2-Phenethyl)-N -(2-(5-methylpyridyl))thiourea] showed an IC50 of 5.5 µM.

The compound `COc1ccc([N+](=O)[O-])cc1NCc1ccco1` [N-(2-furanylmethyl)-2-methoxy-5-nitroaniline] gave an IC50 above 50 µM.

In the case of `O=C(NCc1ccco1)C1CC(c2ccccc2C(F)(F)F)=NO1` (configuration not stated) [N-(2-furanylmethyl)-3-[2-(trifluoromethyl)phenyl]-4,5-dihydroisoxazole-5-carboxamide], the IC50 is above 50 µM.

`O=C(Nc1cc([N+](=O)[O-])ccc1N1CCOCC1)c1ccco1` [N-(2-morpholin-4-yl-5-nitro-phenyl)furan-2-carboxamide] displayed a half-maximal inhibitory concentration (IC50) above 50 µM.

Turning to `Cc1cc(F)ccc1S(=O)(=O)Nc1ncnc2sc3c(c12)CCC3` [N-(7,8-dihydro-6H-cyclopenta[4,5]thieno[1,2-c]pyrimidin-1-yl)-4-fluoro-2-methylbenzenesulfonamide], the IC50 was above 50 µM.

As for `COc1ccc2c(c1)-c1nc(NC(=O)c3cccs3)sc1CC2` [N-(8-methoxy-4,5-dihydrobenzo[e][1,3]benzothiazol-2-yl)-2-thiophenecarboxamide], half-maximal inhibition (IC50) required 41.3 µM.

`CNC(=S)N1CCC(NC(=O)c2ccco2)CC1` [N-[1-(methylcarbamothioyl)piperidin-4-yl]furan-2-carboxamide] gave a half-inhibitory concentration (IC50) above 50 µM.

In turn, `O=C(NC1CCCC1)C(c1ccccn1)N(C(=O)c1csnn1)C1CC1` (configuration not stated) [N-[2-(cyclopentylamino)-2-oxo-1-(2-pyridinyl)ethyl]-N-cyclopropyl-4-thiadiazolecarboxamide] returned an IC50 above 50 µM.

In turn, `COc1cccc(NC(C)(C)c2nnnn2-c2c(C)cccc2C)c1` [N-[2-[1-(2,6-dimethylphenyl)tetrazol-5-yl]propan-2-yl]-3-methoxyaniline] returned an IC50 above 50 µM.

`COc1ccc(C(=O)Nc2ccc(N3CCN(c4ccc(OC)cc4)CC3)c(C#N)c2)cc1` [N-[3-cyano-4-[4-(4-methoxyphenyl)piperazin-1-yl]phenyl]-4-methoxy-benzamide]: the half-inhibitory concentration (IC50) was above 50 µM.

`CCOCCCNS(=O)(=O)c1ccc(NC(=O)c2ccc(OC)c([N+](=O)[O-])c2)cc1` [N-[4-(3-ethoxypropylsulfamoyl)phenyl]-4-methoxy-3-nitrobenzamide] displayed an IC50 above 50 µM.

On to `Cn1nc(C(=O)Nc2nc(-c3ccc(F)cc3)cs2)ccc1=O` [N-[4-(4-fluorophenyl)-1,3-thiazol-2-yl]-1-methyl-6-oxopyridazine-3-carboxamide], for which the IC50 is above 50 µM.

Consider `CC(C)c1csc(CN2CCCC(CCC(=O)NCc3ccccc3F)C2)n1` (configuration not stated) [N-[(2-fluorophenyl)methyl]-3-[1-[(4-propan-2-yl-1,3-thiazol-2-yl)methyl]piperidin-3-yl]propanamide], for which the half-maximal inhibitory concentration (IC50) is above 50 µM.

For the compound `O=C(NCc1ccc2c3c(cccc13)C(=O)N2)c1cccs1` [N-[(2-oxo-1H-benzo[cd]indol-6-yl)methyl]thiophene-2-carboxamide], the IC50 was above 50 µM.
